Data taken from patent US11319289B2, “5-hydroxy pyridine-based compound for use as P2X1 and P2X3 receptor antagonist and pharmaceutical composition comprising same” (GWANGJU INSTITUTE OF SCIENCE AND TECHNOLOGY, priority 2017, dated 2022).
Read-outs that look alike come from different tables or passages of the source.

Legend:
[1] = Plasma and brain concentrations after intravenous administration of Compound 28 in rats; assay type: in vivo, SD rats; conditions: for concentration in the brain tissue: 0.5 hour after intravenous administration of Compound 28; for Kp / concentration at 0.5 h / concentration at 2 h / concentration at 4 h / concentration at 8 h / Kp at 0.5 h / Kp at 2 h / Kp at 4 h / Kp at 8 h: male, rat, iv; for Kp: SD, 5 mg/kg, after i.v. Compound 28, over the time points of Table 6, read-out: brain to plasma ratio; for Kp / Kp at 0.5 h / Kp at 2 h / Kp at 4 h / Kp at 8 h: brain/plasma; for concentration at 0.5 h / Kp at 0.5 h: 0.5 hr after i.v. Compound 28 5 mg/kg; for concentration at 0.5 h / concentration at 2 h / concentration at 4 h / concentration at 8 h / Kp at 0.5 h / Kp at 2 h / Kp at 4 h / Kp at 8 h: rats, mean±SD; for concentration at 2 h / Kp at 2 h: 2 hr after i.v. Compound 28 5 mg/kg; for concentration at 4 h / Kp at 4 h: 4 hr after i.v. Compound 28 5 mg/kg; for concentration at 8 h / Kp at 8 h: 8 hr after i.v. Compound 28 5 mg/kg; for Kp at 0.5 h / Kp at 2 h / Kp at 4 h / Kp at 8 h: read-out: Brain to plasma ratio
Protocol: 7 to 8-weeks old male SD rats (weight of 250 to 290 g) were purchased from SAMTACO (Osan, […], South Korea) and given commercial rat feed (SAMTACO, Osan, Kyungki-Do, South Korea) and water to be consumed freely. 3 rats were housed per each cage at a temperature of 23±2° C. and a relative humidity of 50 to 60% under light-darkness cycles of 12±12 hours. The rats were allowed to acclimate to these conditions for at least one week before the experiments was carried out. The rats were fasted for 12 hours before the experiment and given the tap water to be consumed freely. Compound 28 was administered to the caudal vein at a dose of 5 mg/kg. At 0.5, 2, 4 and 8 hours after intravenous administration, each animal was sacrificed by cervical dislocation. Blood samples were centrifuged at 12,000 rpm for 5 minutes and immediately stored at […] until analysis. After collecting the blood samples, the brains were harvested. Then, the brain tissues were accurately weighed and homogenized with 4-fold volumes of distilled water (IKA T10 basic homogenizer, IKA, Staufen, Germany). The homogenized brain samples were centrifuged at 12,000 rpm for 10 minutes and stored at −20° C. until analysis of 500 μl aliquots. Quantification of the samples was performed using an LC-MS/MS system. The HPLC system is composed of an Agilent 1290 series rapid resolution LC system that includes a binary pump (model: G4220A), an autosampler (model: G4226A) and a column oven (model: G1316C). Mass spectrometer analysis was performed using a Sciex 4000 Q-Trap® mass spectrometer (Applied Biosystems Sciex, Toronto, Ontario, Canada) equipped with an electrospray ionization source. Data acquisition and quantification were performed using the Analyst software version 1.6 from AB SCIEX, and chromatographic separations were performed using Gemini NX C18 (2.0×100 mm, 3 μm, Phenomenex, USA). The mobile phase consisted of ACN (0.1% formic acid) and water (0.1% formic acid) (50:50, v/v). The flow rate was 0.25 mL/min, and the injection volume was set at 5 μL. Mass spectrometry was optimized and performed using a multiple reaction monitoring (MRM) scan in cation mode. The m/z transition was set from 392.1 to 360.2 for Compound 28 and from 378.2 to 360.2 for Compound 29. Preparation of plasma and brain homogenous samples includes protein precipitation with acetonitrile. In 1.5 mL polyethylene microtubes, 5 μL of IS (cimetidine, 10 μg/ml) was added to 50 μL of plasma or tissue homogenate. Subsequently, 150 μl of acetonitrile (extraction solvent) was added to the tube. After vortexing for 30 seconds, the mixture was centrifuged for 5 minutes at 12,000 rpm. 10 μl of supernatant was injected directly into the HPLC column.

[2] = target: T1, CYP2C9 (Homo sapiens, UniProt P11712); experiment: CYP inhibition assay (Vivid fluorometric), 2C9; assay type: biochemical; conditions: human, recombinant human CYP2C9, pH 8; 1 μM in Table 5; read-out: CYP450 inhibition, 2C9 isozyme
T1 construct: purchased Invitrogen
Protocol: CYP450 (1A2, 2C9, 3A4) enzyme assay was performed by a fluorometric assay using a Vivid® CYP450 screening kit (Invitrogen, USA, CA) in a 96-well black plate according to manufacturer's instructions with some modifications. The assay was performed at room temperature, and the final assay volume was 100 μL. […]
A master pre-mixture (enzyme (0.5 nmol recombinant human CYP450 enzyme)/NADP regeneration solution (333 mM glucose-6-phosphate dissolved, 30 U/mL glucose-6-phosphate dehydrogenase in 100 mM KH2PO4 solution at pH 8.0)) was prepared as a CYP450 reaction buffer (200 mM KH2PO4, pH 8.0). The master pre-mixture was added to each well of the 96 well plate, followed by the vehicle DMSO (control) and test compounds, and the mixture was preincubated for 10 minutes in the plate for background reading. Subsequently, the enzyme reaction was immediately initiated through the addition of CYP450 substrate/NADP^+ mixture. After incubation for 40 minutes, the fluorescence of the product was measured with a CHAMELEON™ multi-technology plate reader (2C9, 3A4: excitation wavelength of 530 nm and emission wavelength of 590 nm, 1A2: excitation wavelength of 415 nm and emission wavelength of 460 nm). The effect of the test compounds on CYP450 (1A2, 2C9, 3A4) was expressed as the percentage of enzyme activity.

[3] = Plasma protein binding by rapid equilibrium dialysis, rat; assay type: in vitro ADME; conditions: plasma (50% in PBS), pH 7.4, read-out: Plasma protein binding rate, Rat (converted)
Protocol: Plasma protein binding was measured by rapid equilibrium dialysis (RED). A DMSO stock solution of the compounds was prepared at a concentration of 10 mM and diluted to a concentration of […] with 50% plasma in phosphate buffered saline (PBS, pH 7.4). Plasma samples (100 μL) and PBS (300 μL) were added to the sample chamber and the buffer chamber, respectively, after which the RED device was turn on and the samples were incubated in a shaking incubator at 37° C. for 4 hours. After dialysis, 50 μl aliquots were collected from each side of the chamber. 50 μl of blank plasma was added to the buffer sample, and 50 μl of PBS was also added to the plasma sample. 200 μL of acetonitrile containing an internal standard was added to each sample. The samples were centrifuged at 3200 g for 20 minutes at 4° C., and the supernatants were obtained and analyzed by an LC-MS/MS system. The plasma protein binding rate was calculated as follows: Free form (%)=(Buffer chamber/Plasma chamber)×100 Bound form (%)=100−Free form (%).

[4] = brain, read-out: Brain concentration
[5] = plasma, read-out: Plasma concentration

T1 sequence (P11712 whole entry): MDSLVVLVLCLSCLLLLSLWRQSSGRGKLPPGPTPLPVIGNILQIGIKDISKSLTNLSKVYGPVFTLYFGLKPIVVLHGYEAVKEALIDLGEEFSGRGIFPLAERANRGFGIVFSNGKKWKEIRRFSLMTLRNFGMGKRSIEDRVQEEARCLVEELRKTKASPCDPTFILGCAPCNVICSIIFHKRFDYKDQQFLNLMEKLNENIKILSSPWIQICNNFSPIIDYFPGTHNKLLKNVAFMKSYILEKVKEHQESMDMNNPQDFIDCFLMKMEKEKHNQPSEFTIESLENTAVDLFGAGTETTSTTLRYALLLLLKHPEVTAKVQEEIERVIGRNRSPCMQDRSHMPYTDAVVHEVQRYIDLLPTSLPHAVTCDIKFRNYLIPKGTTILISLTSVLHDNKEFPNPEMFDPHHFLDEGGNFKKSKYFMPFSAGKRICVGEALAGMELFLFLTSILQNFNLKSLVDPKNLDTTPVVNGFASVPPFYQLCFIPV

Row | brain concentration of Compound 28 relative to Compound 29 ([1]; 0.5 hour after i.v. Compound 28) [times] | concentration in the brain tissue [1] [μg/g tissue] | Kp [1] | concentration at 0.5 h [1, 4] [ng/g] | concentration at 2 h [1, 4] [ng/g] | concentration at 4 h [1, 4] [ng/g] | concentration at 8 h [1, 4] [ng/g] | Kp at 0.5 h [1] | Kp at 2 h [1] | Kp at 4 h [1] | Kp at 8 h [1] | concentration at 0.5 h [1, 5] [ng/mL] | concentration at 2 h [1, 5] [ng/mL] | concentration at 4 h [1, 5] [ng/mL] | concentration at 8 h [1, 5] [ng/mL] | inhibition at 40 min, 1 µM [2] [%] | fraction unbound at 4 h, 5 µM [3] | Structure (SMILES)
1 | 50 | 1.11 | 1.13 to 1.79 | 1110 ± 360 | 90 ± 10 | 50 ± 10 | 30 ± 10 | 1.79 ± 0.44 | 1.13 ± 0.25 | 0.94 ± 0.21 | 1.19 ± 0.41 | 620 ± 140 | 80 ± 20 | 60 ± 10 | 20 ± 10 | 28 ± 3 | 0.675 | CCCc1nc(Cc2cccc(Oc3ccccc3)c2)c(C)c(C(=O)OC)c1O [Compound 28, Methyl 3-hydroxy-5-methyl-6-(3-phenoxybenzyl)-2-propylisonicotinate]
2 | – | 0.022 | < 0.25 | 22 ± 3 | 2 ± 1 | 1 | 1 ± 1 | 0.24 ± 0.13 | 0.08 ± 0.02 | 0.05 ± 0.03 | 0.1 ± 0.12 | 110 ± 50 | 30 | 20 ± 10 | 10 | 26 ± 2 | 0.002 | CCCc1nc(Cc2cccc(Oc3ccccc3)c2)c(C)c(C(=O)O)c1O [Compound 29, 3-Hydroxy-5-methyl-6-(3-phenoxybenzyl)-2-propylisonicotinic acid]
